Results taken from patent publication US20070014723A1, “Methods and compositions for 10Beryllium complex probes” (priority 2005, published 2007).
Marks after values point to notes of the source that are not given here.

Tests used:
Format in all cases: cell-based, human
[1] = tested on: BAL lymphocytes from CBD and BeS subjects; experiment: Apoptosis of BAL lymphocytes
[2] = tested on: BAL cells (Be-specific BAL T cells); experiment: Beryllium lymphocyte proliferation test (BeLPT), BAL cells; conditions: for Peak CBD BAL cell BeLPT stimulation index, median (minimum, maximum): CBD BAL cells, n = 4, 10^-10 M Be-ferritin, 10^-4 M BeSO4, 10^-4 M Al2(SO4)3, ferritin
[3] = tested on: BAL macrophages from CBD subjects; experiment: Apoptosis (nuclear fragmentation) of CBD BAL macrophages; conditions: 100 μM BeSO4, 50 μg Be-ferritin adduct containing 270 picomoles of Be, or ferritin alone, mean±SEM
Protocol: FIG. 1. illustrates an exemplary histogram of (a) TUNEL (assay for DNA strand break) positive nuclear staining of CBD BAL macrophages after exposure to 100 μM BeSO4 and (b) nuclear fragmentation in CBD BAL macrophages exposed to Be-ferritin containing 270 picomoles of Be. (c) The percent (mean %±SEM) of CBD BAL cells (n=8) with TUNEL positive nuclei (black) or with fragmented nuclei (open) after exposure to 100 μM BeSO4. *p<0.05 versus the corresponding unstimulated control.
Cell Cultivation: Bronchoalveolar lavage (BAL) was performed as previously described. […] BAL macrophages and T cells were separated by an adherence method known in the art.

| Molecule | Induction of apoptosis of BAL lymphocytes [1] | BAL BeLPT SI, median (minimum, maximum) ([2]; BeS subjects, peak SI after BeSO4 stimulation) | Peak CBD BAL cell BeLPT stimulation index, median (minimum, maximum) [2] | BAL macrophages with apoptotic fragmented nuclei [3] |
| --- | --- | --- | --- | --- |
| O=S(=O)([O-])[O-].[Be+2] [BeSO4, Beryllium sulfate] | did not induce | 1.9 (1.2, 46) | 18.5 (3.7, 124)** | 50%±6% |
| ferritin |  |  | 1.1 (0.8, 1.3) | < 3% |
